Values quoted from earlier work in patent US20100227830A1, “USE OF ESCIN” (MARINOMED BIOTECHNOLOGIE GMBH, priority 2006, published 2010).

Test system: nuclear factor-KB (NF-κB)
Conditions: after traumatic brain injury in rats

β-escin
NF-κB expression level in tissue: significant reduction of NF-κB expression level
